Reference: the NIST ThermoML archive (doi:10.1021/je030231w)
Where “and” joins values, the source holds several entries; their conditions need not be identical. Identical values can stand only once. ± gives the expanded uncertainty stated by the source.

Experiments:
[1] = Crystal, Calculated from knudsen effusion weight loss
[2] = mn = molality of the nth substance listed, in mol/kg; conditions: 298 K, 101.3 kPa, Liquid

Row | SMILES | vapor or sublimation pressure ([1]; 373.02 K) | vapor or sublimation pressure ([1]; 374.94 K) [kPa] | vapor or sublimation pressure ([1]; 378.75 K) [kPa] | vapor or sublimation pressure ([1]; 380.67 K) [kPa] | vapor or sublimation pressure ([1]; 382.54 K) [kPa] | vapor or sublimation pressure ([1]; 384.45 K) [kPa] | vapor or sublimation pressure ([1]; 386.35 K) [kPa] | vapor or sublimation pressure ([1]; 388.25 K) [kPa] | vapor or sublimation pressure ([1]; 390.15 K) [kPa] | vapor or sublimation pressure ([1]; 392.01 K) | mass density ([2]; m1 = 0.01034) [kg/m3] | mass density ([2]; m1 = 0.01092) [kg/m3] | mass density ([2]; m1 = 0.01101) [kg/m3] | mass density ([2]; m1 = 0.01122) [kg/m3] | mass density ([2]; m1 = 0.01187) [kg/m3] | mass density ([2]; m1 = 0.01292) [kg/m3]
1 | O=c1[nH]cc(C(F)(F)F)c(=O)[nH]1 [5-(trifluoromethyl)uracil] | 1.187e-05 ± 6e-07 kPa and 1.168e-05 ± 5.9e-07 kPa | 1.376e-05 ± 7e-07 | 2.012e-05 ± 1e-06 | 2.417e-05 ± 1.2e-06 | 2.882e-05 ± 1.5e-06 | 3.348e-05 ± 1.7e-06 | 3.983e-05 ± 2e-06 | 4.61e-05 ± 2.3e-06 | 5.586e-05 ± 2.8e-06 | 6.401e-05 ± 3.2e-06 kPa and 6.45e-05 ± 3.2e-06 kPa |  |  |  |  |  | 
2 | O=c1[nH]cc(C(F)(F)F)c(=O)[nH]1 [5-(trifluoromethyl)uracil] + O |  |  |  |  |  |  |  |  |  |  | 997.88 ± 0.2 | 997.938 ± 0.2 | 997.946 ± 0.19 | 997.96 ± 0.19 | 998.017 ± 0.19 | 998.089 ± 0.18
